Experimental data: patent publication EP2649091B1, “IMMUNE RESTRICTED PEPTIDES WITH INCREASED EFFICACY” (Stichting Het Nederlands Kanker Instituut, priority 2010, dated 2012)
“And” between values parts separate entries of the source, which are not always exact repeats. Equal values may be shown once. Where no end group is shown, it is not given here. BUTALA = not defined here; am‑phg = not defined here; PHG = not defined here

Tests used:
[1] = tested on: CD8+ T cells from Influenza A positive donors sorted using tetramers containing HLA A2.1::[…]; assay type: cell-based
[2] = tested on: CD8+ T cells from Influenza A positive donors sorted using tetramers containing HLA A2.1::[…]; assay type: cell-based; remark: listed apart in the source
HLA-A0201 = HLA-A0201 (Homo sapiens, UniProt P04439, D140Y/D185E/D98H/E176V/E277Q/G131W/G231S/I119V/I121R/I166T/I218V/L300P/L318F/N151K/N90K/P208A/P217A/Q86G/Q94H/R138H/R169H/T345S); assay type: binding
[3] = tested on: CD8+ T cells with SVYDFFVWL (Melanoma, TRP-2, residues 180-188) specific T cell receptor; test: T cell activation time course assay, IFNγ production by FACS, TRP-2 epitope; assay type: cell-based; conditions: 48H, peptide 50 picomolar
Description: FACS was employed to obtain results.
Also for this epitope, an IFNγ expression time-course experiment was performed. The two distinguishing time points 24H and 48H were taken along at peptide concentrations of 5·10^3 pM, 50 pM and 0.5 pM.

[4] = tested on: HLA-A2::Mart-1(26-35) reactive T cells stimulated by T2 cells; test: T cell activation time course assay, IFNγ production (FACS), Mart-1 epitope; assay type: cell-based; conditions: for % CD8+ T cells producing IFN-γ 0H / Geometric mean IFN-γ in arbitrary fluorescence units 0H: time point 0H (basal); for % CD8+ T cells producing IFN-γ 2H / Geometric mean IFN-γ in arbitrary fluorescence units 2H: time point 2H; for % CD8+ T cells producing IFN-γ 4H / Geometric mean IFN-γ in arbitrary fluorescence units 4H: time point 4H; for % CD8+ T cells producing IFN-γ 24H / Geometric mean IFN-γ in arbitrary fluorescence units 24H: time point 24H; for % CD8+ T cells producing IFN-γ 24H / Geometric mean IFN-γ in arbitrary fluorescence units 24H / % CD8+ T cells producing IFN-γ 48H / Geometric mean IFN-γ in arbitrary fluorescence units 48H: free peptide washed away; for % CD8+ T cells producing IFN-γ 48H / Geometric mean IFN-γ in arbitrary fluorescence units 48H: time point 48H
[5] = tested on: SVYDFFVWL (TRP-2 180-188) reactive T cells; test: T cell activation time course assay, IFNγ production (FACS), TRP-2 epitope; conditions: for % CD8+ T cells producing IFN-γ peptide concentrations in picomolar 24H 0.5 / Geometric mean IFN-γ in arbitrary fluorescence units peptide concentrations in picomolar 24H 0.5 / % CD8+ T cells producing IFN-γ peptide concentrations in picomolar 48H 0.5 / Geometric mean IFN-γ in arbitrary fluorescence units peptide concentrations in picomolar 48H 0.5: peptide 0.5 pM; for % CD8+ T cells producing IFN-γ peptide concentrations in picomolar 24H 5·10^3 / Geometric mean IFN-γ in arbitrary fluorescence units peptide concentrations in picomolar 24H 5·10^3 / % CD8+ T cells producing IFN-γ peptide concentrations in picomolar 48H 5·10^3 / Geometric mean IFN-γ in arbitrary fluorescence units peptide concentrations in picomolar 48H 5·10^3: peptide 5·10^3 pM

Substance | % CD8+ T cells producing IFN-γ % IFN [1] [%] | Geometric mean IFN-γ in arbitrary fluorescence units Geo IFN [1] | % Positive TCR recognition % TCR [2] [%] | Geometric mean IFN in arbitrary fluorescence units Geo TCR [2] | % inhibition at T=4H and T=24H FP 24h (HLA-A0201) [%] | IC50 Ratio (HLA-A0201) | % inhibition at T=4H and T=24H FP 4h (HLA-A0201) [%] | further results
[am-phg][BUTALA]LGFVFTL | 2.8 | 205 arbitrary fluorescence units | 3.32 | 155 arbitrary fluorescence units | 96 | 3 |  | 
[am-phg][BUTALA]LGFV[4-FPHE]TL | 2.6 | 266 arbitrary fluorescence units | 3.20 | 217 arbitrary fluorescence units | 84 | 3 | 83 | 
[CSME][2-AOC]YDFFVWL [listing 1 of 2 here] |  |  |  |  |  |  |  | % CD8+ T cells producing IFN-γ [3]: significantly above background level
[am-phg][NVA]AGIGILT[ALG] |  |  |  |  | 63 | 2.5 and 2 | 58 | % CD8+ T cells producing IFN-γ 0H ([4]; peptide 0.5 pM): 0%; Geometric mean IFN-γ in arbitrary fluorescence units 0H ([4]; peptide 0.5 pM): 112 arbitrary fluorescence units; % CD8+ T cells producing IFN-γ 2H ([4]; peptide 0.5 pM): 26%; Geometric mean IFN-γ in arbitrary fluorescence units 2H ([4]; peptide 0.5 pM): 221 arbitrary fluorescence units; % CD8+ T cells producing IFN-γ 4H ([4]; peptide 0.5 pM): 29%; Geometric mean IFN-γ in arbitrary fluorescence units 4H ([4]; peptide 0.5 pM): 350 arbitrary fluorescence units; % CD8+ T cells producing IFN-γ 24H ([4]; peptide 0.5 pM): 17%; Geometric mean IFN-γ in arbitrary fluorescence units 24H ([4]; peptide 0.5 pM): 163 arbitrary fluorescence units; % CD8+ T cells producing IFN-γ 48H ([4]; peptide 0.5 pM): 5%; Geometric mean IFN-γ in arbitrary fluorescence units 48H ([4]; peptide 0.5 pM): 111 arbitrary fluorescence units; % CD8+ T cells producing IFN-γ 0H ([4]; peptide 50 pM): 0%; Geometric mean IFN-γ in arbitrary fluorescence units 0H ([4]; peptide 50 pM): 109 arbitrary fluorescence units; % CD8+ T cells producing IFN-γ 2H ([4]; peptide 50 pM): 28%; Geometric mean IFN-γ in arbitrary fluorescence units 2H ([4]; peptide 50 pM): 247 arbitrary fluorescence units; % CD8+ T cells producing IFN-γ 4H ([4]; peptide 50 pM): 33%; Geometric mean IFN-γ in arbitrary fluorescence units 4H ([4]; peptide 50 pM): 715 arbitrary fluorescence units; % CD8+ T cells producing IFN-γ 24H ([4]; peptide 50 pM): 29%; Geometric mean IFN-γ in arbitrary fluorescence units 24H ([4]; peptide 50 pM): 400 arbitrary fluorescence units; % CD8+ T cells producing IFN-γ 48H ([4]; peptide 50 pM): 20%; Geometric mean IFN-γ in arbitrary fluorescence units 48H ([4]; peptide 50 pM): 280 arbitrary fluorescence units
[am-phg][2-AOC]YDFFVWL ({am‑phg-2‑AOC}-YDFFVWL; reading uncertain; also: printed as [am-phg][2-AOC]YDFFVWL) |  |  |  |  |  |  |  | % CD8+ T cells producing IFN-γ [3]: significantly above background level
[am-phg][2-AOC]AGIGILT[PRG] |  |  |  |  | 77 | 24.3 and 24 | 80 | % CD8+ T cells producing IFN-γ 0H ([4]; peptide 0.5 pM): 0%; Geometric mean IFN-γ in arbitrary fluorescence units 0H ([4]; peptide 0.5 pM): 104 arbitrary fluorescence units; % CD8+ T cells producing IFN-γ 2H ([4]; peptide 0.5 pM): 26%; Geometric mean IFN-γ in arbitrary fluorescence units 2H ([4]; peptide 0.5 pM): 207 arbitrary fluorescence units; % CD8+ T cells producing IFN-γ 4H ([4]; peptide 0.5 pM): 30%; Geometric mean IFN-γ in arbitrary fluorescence units 4H ([4]; peptide 0.5 pM): 378 arbitrary fluorescence units; % CD8+ T cells producing IFN-γ 24H ([4]; peptide 0.5 pM): 1%; Geometric mean IFN-γ in arbitrary fluorescence units 24H ([4]; peptide 0.5 pM): 116 arbitrary fluorescence units; % CD8+ T cells producing IFN-γ 48H ([4]; peptide 0.5 pM): 0%; Geometric mean IFN-γ in arbitrary fluorescence units 48H ([4]; peptide 0.5 pM): 88 arbitrary fluorescence units; % CD8+ T cells producing IFN-γ 0H ([4]; peptide 50 pM): 0%; Geometric mean IFN-γ in arbitrary fluorescence units 0H ([4]; peptide 50 pM): 109 arbitrary fluorescence units; % CD8+ T cells producing IFN-γ 2H ([4]; peptide 50 pM): 27%; Geometric mean IFN-γ in arbitrary fluorescence units 2H ([4]; peptide 50 pM): 258 arbitrary fluorescence units; % CD8+ T cells producing IFN-γ 4H ([4]; peptide 50 pM): 30%; Geometric mean IFN-γ in arbitrary fluorescence units 4H ([4]; peptide 50 pM): 592 arbitrary fluorescence units; % CD8+ T cells producing IFN-γ 24H ([4]; peptide 50 pM): 16%; Geometric mean IFN-γ in arbitrary fluorescence units 24H ([4]; peptide 50 pM): 187 arbitrary fluorescence units; % CD8+ T cells producing IFN-γ 48H ([4]; peptide 50 pM): 1%; Geometric mean IFN-γ in arbitrary fluorescence units 48H ([4]; peptide 50 pM): 86 arbitrary fluorescence units
[am-phg][CpALA]LGFVFTL | 2.2 | 259 arbitrary fluorescence units | 3.17 | 150 arbitrary fluorescence units | 91 | 2 |  | 
[PHG]I[NLE]GFVFTL | 2.9 | 270 arbitrary fluorescence units | 3.26 | 235 arbitrary fluorescence units | 84 | 3 | 86 | 
[PHG][NLE]LGFVFTL | 2.7 | 238 arbitrary fluorescence units | 3.58 | 328 arbitrary fluorescence units | 77 | 4 | 77 | 
[am-phg]ILGFV[4-FPHE]TL | 2.2 | 208 arbitrary fluorescence units | 3.27 | 197 arbitrary fluorescence units | 93 | 6 | 92 | 
[am-phg][NVA]YDFFVWL (N-terminal am-phg and NVA) |  |  |  |  |  |  |  | % CD8+ T cells producing IFN-γ [3]: significantly above background level
[am-phg][NVA]LGFV[4-FPHE]TL | 3.4 | 242 arbitrary fluorescence units | 3.54 | 143 arbitrary fluorescence units | 97 | 2 |  | 
[am-phg][NLE]LGFV[4-FPHE]TL | 3.0 | 221 arbitrary fluorescence units | 3.40 | 302 arbitrary fluorescence units | 83 | 3 | 82 | 
[PHG][BUTALA]LGFVFTL ({PHG-BUTALA}-LGFVFTL; reading uncertain) | 2.5 | 249 arbitrary fluorescence units | 3.16 | 464 arbitrary fluorescence units | 75 |  |  | 
[CSME][2-AOC]YDFFVWL [listing 2 of 2 here] |  |  |  |  | 76 |  | 88 | % inhibition at T=4H and T=24H FP 4H (HLA-A0201): 88%; % inhibition at T=4H and T=24H FP 24H (HLA-A0201): 76%; % CD8+ T cells producing IFN-γ peptide concentrations in picomolar 24H 0.5 ([5]; 24H): 1%; Geometric mean IFN-γ in arbitrary fluorescence units peptide concentrations in picomolar 24H 0.5 ([5]; 24H): 71 arbitrary fluorescence units; % CD8+ T cells producing IFN-γ peptide concentrations in picomolar 24H 50 ([5]; 24H, peptide 50 pM): 20%; % CD8+ T cells producing IFN-γ peptide concentrations in picomolar 24H 5·10^3 ([5]; 24H): 30%; Geometric mean IFN-γ in arbitrary fluorescence units peptide concentrations in picomolar 24H 5·10^3 ([5]; 24H): 264 arbitrary fluorescence units; % CD8+ T cells producing IFN-γ peptide concentrations in picomolar 48H 0.5 ([5]; 48H): 0%; Geometric mean IFN-γ in arbitrary fluorescence units peptide concentrations in picomolar 48H 0.5 ([5]; 48H): 68 arbitrary fluorescence units; % CD8+ T cells producing IFN-γ peptide concentrations in picomolar 48H 50 ([5]; 48H, peptide 50 pM): 5%; % CD8+ T cells producing IFN-γ peptide concentrations in picomolar 48H 5·10^3 ([5]; 48H): 33%; Geometric mean IFN-γ in arbitrary fluorescence units peptide concentrations in picomolar 48H 5·10^3 ([5]; 48H): 224 arbitrary fluorescence units
[CSME][CpALA]YDFFVW[PRG] |  |  |  |  | 83 |  | 85 | % CD8+ T cells producing IFN-γ peptide concentrations in picomolar 24H 0.5 ([5]; 24H): 1%; Geometric mean IFN-γ in arbitrary fluorescence units peptide concentrations in picomolar 24H 0.5 ([5]; 24H): 69 arbitrary fluorescence units; % CD8+ T cells producing IFN-γ peptide concentrations in picomolar 24H 50 ([5]; 24H, peptide 50 pM): 5%; Geometric mean IFN-γ in arbitrary fluorescence units peptide concentrations in picomolar 24H 50 ([5]; 24H, peptide 50 pM): 73 arbitrary fluorescence units; % CD8+ T cells producing IFN-γ peptide concentrations in picomolar 24H 5·10^3 ([5]; 24H): 27%; Geometric mean IFN-γ in arbitrary fluorescence units peptide concentrations in picomolar 24H 5·10^3 ([5]; 24H): 147 arbitrary fluorescence units; % CD8+ T cells producing IFN-γ peptide concentrations in picomolar 48H 0.5 ([5]; 48H): 0%; Geometric mean IFN-γ in arbitrary fluorescence units peptide concentrations in picomolar 48H 0.5 ([5]; 48H): 58 arbitrary fluorescence units; % CD8+ T cells producing IFN-γ peptide concentrations in picomolar 48H 50 ([5]; 48H, peptide 50 pM): 1%; Geometric mean IFN-γ in arbitrary fluorescence units peptide concentrations in picomolar 48H 50 ([5]; 48H, peptide 50 pM): 68 arbitrary fluorescence units; % CD8+ T cells producing IFN-γ peptide concentrations in picomolar 48H 5·10^3 ([5]; 48H): 14%; Geometric mean IFN-γ in arbitrary fluorescence units peptide concentrations in picomolar 48H 5·10^3 ([5]; 48H): 105 arbitrary fluorescence units
[am-phg][CpALA]LGFV[4-FPHE]TL | 2.8 | 243 arbitrary fluorescence units | 3.26 | 208 arbitrary fluorescence units | 96 | 5 | 96 | 
